Measurements published in US20230374505A1, “Human XIST Antisense Oligonucleotides for X Reactivation Therapy” (The General Hospital Corporation, priority 2020, published 2023).

Experiments:
[1] = test system: human CDKL5 patient fibroblast line; test: Toxicity of nanaomycin to CDKL5 patient fibroblasts; type: cell-based; conditions: added every 2 days, 5 days treatment; data not shown
Method: Experiments were also conducted to test Xi reactivation in human CDKL5 patient's fibroblast with XIST ASO-6B and DNMT3 inhibitor, Nanaomycin, co-treatment. A human CDKL5 patient fibroblast line carrying mutation on the Xa was treated with an ASO to XIST and a DNMT3i, nanaomycin A. After 5 days of treatment with 20 nM XIST ASO-6B (added once at day 0; lipofectamine transfection) and 25 nM-1 uM nanaomycin A (added every 2 days; days 0, 2, and 4), cells were harvested for qPCR analysis (FIG. 10A). Nanaomycin is very toxic, and the cells were dead in concentration above 250 nM (data not shown).

[2] = test system: XIST; test: XIST expression in CDKL5 patient fibroblasts after XIST ASO with or without DNMTi, qPCR; type: cell-based, human
Method: (§1) FIGS. 8A-8C. Xi reactivation in human CDKL5 patient's fibroblast with XIST ASO+/−DNMTi (Decitabine, Azacitidine, RG-108). (A) A human CDKL5 patient fibroblast line carrying mutation on the Xa was treated with ASOs to XIST and three DNMTi. On day 0, cells were treated with 20 nM of XIST ASO-6B, and 1 uM of each DNMTi every 2 days. […] XIST expression was relative to untreated levels, normalized to RPL13a. […] CDKL5 wt reactivation was normalized to CDKL5mut expression from the Xa chromosome.
FIGS. 11A-11B. Triplicate experiment showing Xi reactivation in human CDKL5 patient's fibroblast with XIST ASO+/−DNMTi (Decitabine, Azacitidine, RG-108). […] CDKL5 wt reactivation was normalized to CDKL5mut expression from the Xa chromosome. Data shown are the average of three experiments; error bars are standard deviation.
RNA was isolated by Trizol (Life Technologies) extraction (tissues were snap frozen in liquid nitrogen and ground with pestle and mortar or put in Trizol and homogenized using a Qiagen TissueLyser), treated with TurboDNAse for 30 min at 37° C. […] The relative efficiency of the reactivations was calculated by comparing to GAPDH or TBP RNA as the internal control in mouse experiment. The relative efficiency of the reactivations was calculated by comparing to RPL13a as the internal control in human cells. […]

[3] = test system: CDKL5 wt allele (Xi); test: CDKL5 wt allele reactivation in human CDKL5 patient fibroblasts, allele-specific qPCR; type: cell-based
Method: FIGS. 6A-6B. XIST ASO (ASO-6B) and DNMTi co-treatment in CDKL5 patient fibroblast. (A) A schematic of treatment of a human CDKL5 patient fibroblast line carrying mutation on the Xa. After 3 days of treatment with 100 nM XIST ASOs (lipofectamine transfection) and 0.5 uM Aza (added every 2 days), harvested cells underwent qPCR analysis. […] CDKL5 wt reactivation was normalized to CDKL5mut expression from the Xa chromosome, normalized to RPL13a.
as §1, with “days. On day 7, cells were harvested for qPCR analysis.” for “days.”
FIGS. 9A-9C. Xi reactivation in human CDKL5 patient's fibroblast with XIST ASO-6B and DNMT inhibitor (SGI-1027) co-treatment. (A) A human CDKL5 patient fibroblast line carrying mutation on the Xa was treated with an ASO to XIST and an DNMTi. […]

[4] = test system: cell culture; test: Tolerable Aza concentration in cell culture; type: cell-based
[5] = test system: Xi reactivation in the brain; test: Aza/decitabine three pulse treatment, Xi reactivation in the brain; type: in vivo, mouse; conditions: three short pulses delivered systemically; after two weeks
Text: ASO drugs are generally more specific and have the advantage that information on pharmacokinetics and toxicity studies for chemically similar ASOs is transferable and cumulative. Thus, ASOs may have a more favorable path to regulatory approval. Small molecules generally have lower selectivity and may face steeper hurdles in the approval process within the US Food and Drug Administration (FDA). By mixing modalities, our approach may potentially anticipate a more streamlined approach to FDA approval. […] Unlike LNA-based ASOs which have tissue half-lives of several weeks (Wahlestedt C et al. Potent and nontoxic antisense oligonucleotides containing locked nucleic acids. Proc Natl Acad Sci USA. 2000; 97:5633-5638), Aza is known to have a very short half-life (t1/2<1h in plasma) (Welch J S et al. TP53 and decitabine in acute myeloid leukemia and myelodysplastic syndromes. N Engl J Med. 2016; 375:2023-2036). However, once DNA is demethylated, the state may be stable (Kordasiewicz H B et al. Sustained therapeutic reversal of Huntington's disease by transient repression of huntingtin synthesis. Neuron. 2012; 74:1031-1044). Future work will determine the duration of the effect and whether periodic boosters of either Aza or ASO might be necessary to maintain the reactivation.
Decitabine was administered to the XIST2lox, Nestin-Cre F2 generation, by IP injection at 5 weeks old. […]

[6] = in plasma; cited from earlier work

CC1OC(CC(=O)O)CC2=C1C(=O)c1c(O)cccc1C2=O (centres unmarked) [Nanaomycin, nanaomycin A]
concentration above which the cells were dead [1]: above 250 nM

ASO 6B: XIST ASO AGAAGTCTGGCACATCTGTG, SEQ ID NO:11 (LNA-flanked DNA gapmer, wing lengths and linkages not given here, further chemistry not given here)
XIST expression ([2]; 20 nM ASO-6B with and without 1 uM DNMTi, 7 days (FIG. 8B)): decreased | XIST expression ([2]; 20 nM ASO-6B with or without DNMTi, 4 days (FIG. 11A)): decreased | CDKL5 reactivation ([3]; 20 nM ASO 6B at day 0, 1 uM Decitabine, 0.5 uM Azacitidine or 1 uM RG-108 at days 0 and 2, harvested Day 4, average of three experiments (FIG. 11B)): 0.13% | CDKL5 reactivation ([3]; 20 nM ASO-6B at day 0, 1 uM DNMTi every 2 days, harvested day 7 (FIG. 8C)): 0.7%

Nc1ncn([C@H]2C[C@H](O)[C@@H](CO)O2)c(=O)n1 [Aza, 5-aza-2′-deoxycytidine]
tolerable concentration in cell culture [4]: 0.5 µM | Xi reactivation in the brain [5]: sufficient to induce Xi reactivation | t1/2 [6]: < 1 h
